Results taken from patent publication US5326883A, “Oxime ether derivatives having lipoxygenase inhibitory activity” (Abbott Laboratories, priority 1992, dated 1994).

biological target: T1, 5-Lipoxygenase (Homo sapiens, UniProt P09917); test: Calcium ionophore-induced LTB4 biosynthesis in human whole blood (5-lipoxygenase inhibition); assay type: cell-based; details: human heparinized whole blood; 15 min preincubation at 37° C; A23187 8.3 μM, 30 min; LTB4 by radioimmunoassay
T1 construct: Human heparinized whole blood was preincubated with test compounds or vehicle for 15 min; endogenous in cells; host or cells: human heparinized whole blood (blood leukocytes)
T1 sequence (P09917 1-674): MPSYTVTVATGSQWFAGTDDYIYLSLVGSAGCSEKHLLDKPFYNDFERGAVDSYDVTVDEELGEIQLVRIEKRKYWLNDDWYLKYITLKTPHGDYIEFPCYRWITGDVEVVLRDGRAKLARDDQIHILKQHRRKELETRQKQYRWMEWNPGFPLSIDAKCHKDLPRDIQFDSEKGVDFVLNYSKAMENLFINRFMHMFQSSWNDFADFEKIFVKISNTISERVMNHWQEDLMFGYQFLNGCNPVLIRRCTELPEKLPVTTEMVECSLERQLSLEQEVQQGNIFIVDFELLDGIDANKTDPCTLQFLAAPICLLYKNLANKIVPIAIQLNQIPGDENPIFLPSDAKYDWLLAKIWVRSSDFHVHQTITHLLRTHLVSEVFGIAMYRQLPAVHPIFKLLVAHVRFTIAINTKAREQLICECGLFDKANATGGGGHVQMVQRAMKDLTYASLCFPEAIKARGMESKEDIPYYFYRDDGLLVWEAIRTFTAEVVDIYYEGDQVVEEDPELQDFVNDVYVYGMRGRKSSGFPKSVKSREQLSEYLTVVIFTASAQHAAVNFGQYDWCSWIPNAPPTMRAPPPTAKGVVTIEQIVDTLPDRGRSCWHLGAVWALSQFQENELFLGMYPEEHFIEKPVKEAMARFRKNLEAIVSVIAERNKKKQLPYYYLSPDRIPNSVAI
Procedure: Inhibition of leukotriene biosynthesis was evaluated in an assay, involving calcium ionophore-induced LTB4 biosynthesis expressed human whole blood. […] The methanol extract was analyzed for LTB4 using a commercially available radioimmunoassay. |In Vitro Inhibitory Potencies of Compounds of this Invention […] |in Human Whole Blood

IC50 [nM]	Compound
100	CC(=NOCCN(O)C(N)=O)c1cc2ccccc2s1 [Example 1, 1-(benzo[b]thien-2-yl)ethyloximyl-O-2-ethyl-N-hydroxyurea]
100	CCCCCC=NOCCN(O)C(N)=O [Example 2, hexyloximyl-O-2-ethyl-N-hydroxyurea]
160	NC(=O)N(O)CCON=Cc1cccn1Cc1ccc(Cl)cc1 [Example 3, 1-(4-chlorobenzyl)-pyrro-2-ylmethyloximyl-O-2-ethyl-N-hydroxyurea]
100	NC(=O)N(O)CCON=Cc1cccc(Oc2ccc(F)cc2)c1 [Example 4, 3-(4-fluorophenoxy)phenylmethyloximyl-O-2-ethyl-N-hydroxyurea]
140	CC(CN(O)C(N)=O)O/N=C/c1ccc(Oc2ccc(F)cc2)o1 (stereo not shown) [Example 8, 5-(4-fluorophenoxy)fur-2-ylmethyl-E-oximyl-O-2-(2-methyl)ethyl-N-hydroxyurea]
100	CC(CN(O)C(N)=O)O/N=C\c1ccc(Oc2ccc(F)cc2)o1 (stereo not shown) [Example 9, 5-(4-fluorophenoxy)fur-2-ylmethyl-Z-oximyl-O-2-(2-methyl)ethyl-N-hydroxyurea]
100	NC(=O)N(O)CCON=Cc1ccc(Sc2ccccc2)o1 [Example 10, 5-(phenylthio)fur-2-ylmethyloximyl-O-2-ethyl-N-hydroxyurea]

tested on: biosynthesis of leukotrienes; test: Inhibition of leukotriene biosynthesis in vivo, rat peritoneal anaphylaxis model, oral; details: Oral Dose at 30 μmol/kg, gavage one hour prior to antigen challenge; rat peritoneal fluid 15 min after challenge
Procedure: Inhibition of the biosynthesis of leuktrienes in vivo after oral administration of compound was determined using a rat peritoneal anaphylaxis model in a similar manner as that described by Young and coworkers (Young, P. R.; Dyer, R. D.; Carter, G. W. Fed. Proc., Fed. Am. Soc. Exp. Biol. 1985, 44, 1185). In this model rats were injected intraperitoneally (ip) with rabbit antibody to bovine serum albumin (BSA) and three hours later injected ip with BSA to induce an antgen-antibody response. Rats were sacrificed 15 minutes after this challenge and the peritoneal fluids were collected and analyzed for leukotriene levels. Test compounds were administered by gavage one hour prior to the antigen challenge. Percent inhibition values were determined by comparing the treatment group to the mean of the control group.

Compound	% Inhibition of Leukotrienes [%]
CC(CO/N=C\c1ccc(Oc2ccc(F)cc2)o1)N(O)C(N)=O (stereo not shown) [Example 6, 5-(4-fluorophenoxy)fur-2-ylmethyl-Z-oximyl-O-2-(1-methyl)ethyl-N-hydroxyurea]	70
CC(CO/N=C/c1ccc(Oc2ccc(F)cc2)o1)N(O)C(N)=O (stereo not shown) [Example 7, 5-(4-fluorophenoxy)fur-2-ylmethyl-E-oximyl-O-2-(1-methyl)ethyl-N-hydroxyurea]	56
CC(CN(O)C(N)=O)O/N=C\c1ccc(Oc2ccc(F)cc2)o1 (stereo not shown) [Example 9, 5-(4-fluorophenoxy)fur-2-ylmethyl-Z-oximyl-O-2-(2-methyl)ethyl-N-hydroxyurea]	64
